Test results as given in patent US8642593B2, “2,4-pyrimidinediamine compounds and prodrugs and their uses” (Rigel Pharmaceuticals, Inc., priority 2009, dated 2014).
Read-outs that look alike come from different tables or passages of the source.

Columns and labels:
[1] = test system: mast cell activation induced by FcγR cross-linking (CHMC cells); experiment: LD Tryptase CHMC: tryptase release assay; assay type: cell-based, Human; settings: for inhibition in tryptase assay, in words: prodrug
Procedure: Compounds are assayed for inhibition of mast cell activation induced by FcγR cross-linking by measuring the activity of tryptase released upon degranulation as follows:
Human mast cells are cultured and differentiated from CD38-negative progenitor cell as described in U.S. Patent Publication No. 2005/0234049, which is hereby incorporated herein by reference in its entirety. For example, 65 μL of various concentrations of the test compound are prepared in MT (137 mM NaCl, 2.7 mM KCl, 1.8 mM CaCl2, 1.0 mM MgCl2, 5.6 mM Glucose, 20 mM Hepes (pH 7.4), 0.1% Bovine Serum Albumin, (Sigma, #A4503)) containing 2% MeOH and 1% DMSO, or control buffer are added to duplicate 96-well V-bottom plates. Pelleted and re-suspended (in warm MT) CHMC cells (65 μL) are added to each 96-well plate, mixed and incubated for 1 hour at 37° C. […] MT (25 μL) is added to control wells. After a 60-minute incubation at 37° C., cells and cell debris were pelleted by centrifugation at 1000 rpm for 10 min and tryptase and leukotriene C4 levels are measured.
To measure tryptase levels, 25 μL of supernatant from each well is transferred to a fresh 96-well black bottom plate, to which 100 μL of fresh tryptase substrate solution [(Z-Ala-Lys-Arg-AMC2TFA; Enzyme Systems Products, #AMC-246)]1:2000 in tryptase assay buffer [0.1M Hepes (pH 7.5), 10% w/v Glycerol, 10 μM Heparin (Sigma H-4898) 0.01% NaN3] is added. After 30 minutes incubation at room temperature, the optical density of the plates is measured at 355 nm/460 nm on a spectrophotometric plate reader.
Compounds of the disclosure were assayed for their ability to inhibit mast cell activation induced by FcγR cross-linking by measuring the activity of tryptase released upon degranulation.

[2] = test system: allergen induced basophil degranulation; experiment: CD63 Assay (BASOTEST, FACS, whole blood, anti-IgE); assay type: cell-based; settings: whole blood, anti-IgE; Table 2, unit inferred
Procedure: Compounds are tested for the ability to inhibit allergen induced basophil degranulation. The BASOTEST® kit (Orpegen Pharma GmbH, #10-0500) is used in this assay. In a 5 mL FACS tube 105 μL of Heparinized whole blood, 25 μL of test compound solution (in DMSO) are incubated at room temperature for 30-60 minutes. To induce degranulation, 20 μL stimulation buffer (Reagent B) is added, and the tube is incubated for 10 min in a 37° C. water bath. Then, 100 μL of anti-IgE (2 μg/mL) is added, or 100 µL of washing solution (reagent A) is added (i.e., as a negative control). The tube is incubated for 20 min in a 37° C. water bath. Degranulation is then stopped by incubation on ice for 5 min. 20 μL of staining reagent (reagent F) is added, and the tube is incubated on ice in the dark for 20 min. 2 mL of room temperature lysing solution is added, and the tube is incubated at room temperature for 10 min. The tubes are spun down at 4° C. for 5 min at 1600 rpm, and the supernatant is discarded. 3 mL washing solution (reagent A) is added, and the tubes spun down at 4° C. for 5 min at 1600 rpm, and the supernatant is discarded. 200 μL washing solution is added to the remaining cell pellet, and the samples are incubated on ice in the dark until analysis (within 2 h). Analysis is performed using flow cytometry at 488 nm using the conditions specified in the BASOTEST® kit instructions to determine percentage of activated basophilic granulocytes.

[3] = human mast cells, anti-IgG stimulation, read-out: IC50 (LD Tryptase CHMC)

Compound	IC50 [1, 3] [µM]	inhibition in tryptase assay, in words [1]	IC50 ([1]; Homo sapiens, Mast cell, Table 2, unit inferred, read-out: LD Tryptase CHMC) [µM]	IC50 [2] [µM]
CC1(C)Oc2ccc(Nc3nc(Nc4ccc(N5CCOCC5)nc4)ncc3F)nc2N(COP(=O)([O-])[O-])C1=O.[Na+].[Na+] [Compound 2, N4-[2,2-Dimethyl-4-[(dihydrogenphosphonoxy)methyl]-3-oxo-5-pyrido[1,4]oxazin-6-yl]-5-fluoro-N2-(6-morpholinopyridin-3-yl)-2,4-pyrimidinediamine disodium salt]	21.9	only micromolar inhibition	–	–
CC1(C)Oc2ccc(Nc3nc(Nc4ccc(N5CCOCC5)cc4)ncc3F)nc2N(COP(=O)([O-])[O-])C1=O.[Na+].[Na+] [Compound 4, N4-[2,2-Dimethyl-4-[(dihydrogenphosphonoxy)methyl]-3-oxo-5-pyrido[1,4]oxazin-6-yl]-5-fluoro-N2-(4-morpholinophenyl)-2,4-pyrimidinediamine disodium salt]	2.36	only micromolar inhibition	–	–
COc1cc(Nc2ncc(F)c(Nc3ccc4c(n3)NC(=O)C(C)(C)O4)n2)cc(OC)c1OC [N4-(2,2-Dimethyl-3-oxo-4H-5-pyrido[1,4]oxazin-6-yl)-5-fluoro-N2-(3,4,5-trimethoxyphenyl)-2,4-pyrimidinediamine, reference compound]	–	–	0.04	0.93
